Experimental data from US6277859A, “Morphinan derivative and its pharmaceutical applications” (priority 1992, dated 2001).
Where a name gives a salt, the structure may show the parent alone.

What was measured:
κ receptor [1] = biological target: T1, κ receptor (Cavia porcellus, UniProt P41144); assay: Ke with norBNI in isolated guinea pig preparation; format: cell-based, guinea pig (male Hartley); conditions: guinea pig ileum
T1 construct: from tissue; host or cells: longitudinal muscle of the ileum of male Hartley guinea pig
T1 sequence (P41144 whole entry): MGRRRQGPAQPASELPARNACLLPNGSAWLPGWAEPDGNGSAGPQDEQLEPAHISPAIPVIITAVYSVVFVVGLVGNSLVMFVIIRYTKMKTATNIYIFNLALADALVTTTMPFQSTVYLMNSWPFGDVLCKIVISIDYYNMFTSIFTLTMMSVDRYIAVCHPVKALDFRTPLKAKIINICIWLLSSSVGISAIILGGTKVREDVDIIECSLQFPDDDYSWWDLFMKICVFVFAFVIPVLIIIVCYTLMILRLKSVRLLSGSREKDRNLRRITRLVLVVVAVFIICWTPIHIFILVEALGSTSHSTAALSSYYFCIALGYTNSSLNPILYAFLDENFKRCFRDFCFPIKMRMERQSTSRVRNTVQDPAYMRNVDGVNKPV
Method: A male Hartley guinea pig was used in this test.
After sacrificing the guinea pig and extracting the ileum, the lumen was washed with nutrient solution and only the longitudinal muscle was isolated. This longitudinal muscle was filled with Krebes-Henseleit solution (NaCl 118 mM; KCl 4.7 mM; CaCl2 2.5 mM; KH2 PO4 1.2 mM; NaHCO3 25 mM; MgSO4 1.2 mM and glucose 10 mM) warmed to 37° C. and suspended in a Magnus tube ventilated with 5% carbon dioxide and 95% oxygen. Electrical stimulus was performed at 0.1 Hz for 5.0 ms by means of ring-shaped platinum electrodes located above and below. Tissue contractions were recorded on a polygraph using an isometric transducer.
Then after adequately washing with nutrient solution and the contraction reaction stabilized, naloxone, a μ antagonist, or norBNI, a κ […], were added and the test compound was again cumulatively added after roughly 20 minutes. The Ke value was calculated using the following calculation formula from the difference in the efficacies of both agonists.
Ke=[Conc. of added antagonist]/(IC50 ratio-1)
IC50 ratio=IC50 in the presence of antagonist/IC50 in the absence of antagonist

μ receptor = biological target: T2, μ receptor (Mus musculus, UniProt P42866); assay: Ke with naloxone in isolated mouse vas deference preparation; format: cell-based, mouse (male ddy)
T2 construct: The isolated vas deference was filled with Krebes-Henseleit solution; from tissue; host or cells: isolated vas deferens of male ddy mouse
T2 sequence (P42866 whole entry): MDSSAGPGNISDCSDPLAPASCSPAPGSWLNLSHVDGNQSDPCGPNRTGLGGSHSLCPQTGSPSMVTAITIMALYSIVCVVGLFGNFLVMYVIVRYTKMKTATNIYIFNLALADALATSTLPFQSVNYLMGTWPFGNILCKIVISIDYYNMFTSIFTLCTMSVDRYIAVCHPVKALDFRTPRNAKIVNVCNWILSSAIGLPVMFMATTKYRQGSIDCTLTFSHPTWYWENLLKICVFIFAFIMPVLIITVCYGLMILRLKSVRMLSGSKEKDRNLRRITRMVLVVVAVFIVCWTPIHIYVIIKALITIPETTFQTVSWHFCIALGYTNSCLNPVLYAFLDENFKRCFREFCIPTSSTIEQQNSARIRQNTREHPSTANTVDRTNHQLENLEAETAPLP
Outline: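 Male ddy mouse vas deferens in Krebs-Henseleit at 37 °C, gassed 95% O2/5% CO2, field-stimulated at 0.1 Hz, 5.0 ms; isometric contractions recorded. Naloxone, NTI or norBNI was added, then test compound cumulatively after about 20 min. Ke = [antagonist]/(IC50 ratio−1), with IC50 ratio taken as IC50 with antagonist over IC50 without.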

δ receptor = biological target: T3, δ receptor (Mus musculus, UniProt P32300); assay: Ke with NTI in isolated mouse vas deference preparation; format: cell-based, mouse (male ddy); conditions: NTI (δ)
T3 construct: The isolated vas deference was filled with Krebes-Henseleit solution; from tissue; host or cells: isolated vas deferens of male ddy mouse
T3 sequence (P32300 whole entry): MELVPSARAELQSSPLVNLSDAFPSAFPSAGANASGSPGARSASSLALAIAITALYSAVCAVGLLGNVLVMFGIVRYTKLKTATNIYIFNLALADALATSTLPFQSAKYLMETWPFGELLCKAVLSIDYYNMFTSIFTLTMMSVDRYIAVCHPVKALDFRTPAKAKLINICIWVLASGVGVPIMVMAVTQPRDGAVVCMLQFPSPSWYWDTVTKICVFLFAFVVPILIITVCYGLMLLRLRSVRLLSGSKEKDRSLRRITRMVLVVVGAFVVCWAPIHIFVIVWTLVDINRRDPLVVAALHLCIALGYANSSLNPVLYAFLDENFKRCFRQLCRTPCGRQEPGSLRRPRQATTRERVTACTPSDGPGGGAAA

κ receptor [2] = biological target: T4, κ receptor (Mus musculus, UniProt P33534); assay: Ke with norBNI in isolated mouse vas deference preparation; format: cell-based, mouse (male ddy); conditions: for Ke norBNI: norBNI (κ)
T4 construct: The isolated vas deference was filled with Krebes-Henseleit solution; from tissue; host or cells: isolated vas deferens of male ddy mouse
T4 sequence (P33534 whole entry): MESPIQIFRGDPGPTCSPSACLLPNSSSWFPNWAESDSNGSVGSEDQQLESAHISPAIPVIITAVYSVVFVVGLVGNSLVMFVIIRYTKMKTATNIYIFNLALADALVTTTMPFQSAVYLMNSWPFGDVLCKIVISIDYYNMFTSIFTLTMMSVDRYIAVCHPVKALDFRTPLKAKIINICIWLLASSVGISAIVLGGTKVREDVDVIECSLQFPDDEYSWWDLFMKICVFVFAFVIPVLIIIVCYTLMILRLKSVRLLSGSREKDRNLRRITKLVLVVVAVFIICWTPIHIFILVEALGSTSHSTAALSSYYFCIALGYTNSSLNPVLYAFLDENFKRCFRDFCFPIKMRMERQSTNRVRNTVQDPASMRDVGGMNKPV

Wistar rats = assay: Evaluation of diuretic action; format: in vivo, rat (male Wistar); conditions: sc; rat, s.c.; urine output for 5 h after 20 ml/kg saline oral; read-out: ED200, diuretic action (dose giving urine output of 200, non-dosed group = 100)
Outline: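 Male Wistar rats, 7-8 weeks old, received drug s.c. after water deprivation and bladder voiding, then 20 ml/kg saline orally 30 min later. Urine was collected over 5 h in metabolic cages. ED200 and ED500 are doses giving 200 and 500 urine output with the non-dosed group set at 100.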

[3] = system: isolated mouse vas deference; assay: Opioid activity test using the isolated mouse vas deference preparation (electrically stimulated contractions); format: cell-based, mouse (male ddy); conditions: suppression of electrically stimulated contractions
Method: Opioid Activity Test Using the Isolated Mouse Vas Deference Preparation
A male ddy mouse was used in this test. The isolated vas deference was filled with Krebes-Henseleit solution (NaCl 118 mM; KCl 4.7 mM; CaCl2 2.5 mM; KH2 PO4 1.1 mM; NaHCO3 25 mM; and glucose 10 mM) warmed to 37° C. and suspended in a Magnus tube ventilated with 5% carbon dioxide and 95% oxygen. Electrical stimulus was performed at 0.1 Hz for 5.0 ms by means of ring-shaped platinum electrodes located above and below. Tissue contractions were recorded on a polygraph using an isometric transducer.
Then after adequately washing with nutrient solution and the contraction reaction stabilized, naloxone, a μ […], NTI, a δ […], or norBNI, a κ […], were added and the test compound was again cumulatively added after roughly 20 minutes. The Ke value was calculated using the following calculation formula from the difference in the efficacies of both agonists.

ddY mice = assay: animal or person; format: in vivo, mouse (ddY); conditions: sc; mouse, s.c. 15 min before i.p. 0.6% acetic acid; read-out: ED50, acetic acid writhing
Method: Analgesic Activity Test Using the Acetic Acid-induced Writhing Method
5 week old ddY mice were used in this test. After intraperitoneal administration of 0.1 ml of 0.6% aqueous acetic acid per 10 g of body weight, the number of writhing reactions that occurred in 10 minutes starting 10 minutes after administration was evaluated for the indicator. The test drug was administered subcutaneously into the backs of the animals 15 minutes before administration of acetic acid.

SMILES | Ke norBNI (κ receptor [1]) [nM] | Ke Naloxone (μ receptor) [nM] | Ke NTI (δ receptor) [nM] | selective agonist for κ receptors (in words) (κ receptor [2]) | Ke norBNI (κ receptor [2]) [nM] | ED200 (Wistar rats) [µg/kg] | IC50 [3] [nM] | ED50 (ddY mice) [µg/kg]
CN(C(=O)Cc1ccc(Cl)c(Cl)c1)[C@H]1CC[C@@]2(O)[C@H]3Cc4ccc(O)c5c4[C@@]2(CCN3CC2CC2)[C@H]1O5 [Compound 1, 17-cyclopropylmethyl-4,5α-epoxy-3,14β-dihydroxy-6α-(N-methyl-3,4-dichlorophenylacetamido)morphinan.hydrochloride] | 0.16 | 53 | 17.3 | selective agonists for κ receptors | 0.548 | 2.7 | – | –
COc1cccc(/C=C/C(=O)N(C)[C@@H]2CC[C@@]3(O)[C@H]4Cc5ccc(O)c6c5[C@@]3(CCN4CC3CC3)[C@H]2O6)c1 [Compound 63] | – | 60.9 | 96.9 | selective agonists for κ receptors | 1.60 | 3.8 | 0.746 | 1.1
